Results on three compounds are retold here after patent publication US8236754B2, “Methods for improving the structure and function of arterioles” (The Regents of the University of California, priority 2004, dated 2012).

“Also recorded” adds a separate entry of the source. Non-standard residues stand in square brackets, D forms with d.

For assay [1], the system named is facial artery of LDL receptor null mice. The experiment in a line: Facial artery ring vasoreactivity, acetylcholine relaxation after oral treatment. It is filed as in vivo. As to conditions: Western diet, 1 mg/mL in drinking water, six weeks.
Assay [2] concerns apoe null mice. As to conditions: oral DMPC; cited from earlier work.
Assay [3] deals with mouse facial artery. The note with it: published studies; cited from earlier work.
Assay [4] has as its system brain arterioles of LDL receptor null mice. The experiment in a line: Brain arteriolar wall thickness and lumen diameter by morphometry on H&E sections. It is filed as in vivo. The note with it: Western diet 6 weeks, 300 μg/mL in drinking water, D-4F vs scrambled D-4F. The protocol:
Female wild-type and LDL receptor null C57BL/6 mice were from Jackson Laboratories (Bar Harbour, Me.). The mice were maintained on a chow diet (Ralston Purina) prior to administration of a Western diet (Teklad/Harlan, Madison Wis., diet No. 88137; 42% fat, 0.15% cholesterol, w/w). For studies of brain arterioles the mice were anesthetized with intramuscular ketamine (100 mg/kg) and acepromazine (2.5 mg/kg) and the heart was perfused via the left ventricle with 25 mL phosphate buffered saline (PBS) containing heparin (10 U/mL) followed by 100 mL of 4% paraformaldehyde (PFA) in PBS at pH 7.4 as described by Fernagut et al. (Fernagut et al. (2002) Neuroscience, 114: 1005-1017; Fernagut et al. (2004) Exp Neurol., 185: 47-62). Brains were quickly removed and stored for 24 hrs in 4% PFA at 4° C. and then transferred to 10% sucrose in PBS (pH 7.4) and left until they sank to the bottom of the solution. The right half of the brains were embedded in OCT (Tissue-Tek; Miles Laboratories Ltd, Elkhart Ind.) and frozen in isopentane at −40° C. and stored at −80° C. until sectioned in a cryostat at −20° C. The frozen brain was cut into 8 μm sections coronally to include the underlying white matter and stained with hematoxylin-eosin (H&E) and for smooth muscle α-actin (Serotec, Raleigh, N.C.). […]
(§1) Morphometry was performed to determine vascular wall thickness for all arterioles that were distended and perpendicularly cross-sectioned. […] A minimum of 10 arteries from each diameter group was examined in the cortical area and the deep white matter regions from each brain, and the wall thickness and wall to lumen ratios determined. The ratio of immunoreactive media thickness to the internal diameter of each vessel was assessed in sections immunostained for smooth muscle α-actin. […] Inter-observer variation was determined by having the three investigators measure the same 20 arterioles for wall thickness and lumen diameter and calculate the wall to lumen ratio. […]

A short description of assay [5]: Plasma lipoprotein and lipid levels. It counts as in vivo, mice. The protocol:
Plasma lipoprotein and lipid levels were determined as described previously (Navab et al. (2004) Circulation, 109:r120-r125; Navab et al. (2005) Arterioscler Thromb Vasc Biol., 25: 1-7).

For assay [6], the system named is LDL lipid hydroperoxides. The note with it: mice, oral D-4F, without changing plasma lipid levels; cited from earlier work.
Assay [7] relates to LDL receptor null mice. The experiment in a line: T-maze continuous alternation task (T-CAT), spatial memory. It counts as in vivo. The procedure:
T-maze continuous alternation task (T-CAT) testing took place daily between 9 A.M. and 4 P.M. and was performed by one investigator unaware of the treatment groups. The mice were delivered to the testing room two hours prior to behavioral studies to allow familiarization with the extra-maze visual cues of the room. The T-maze apparatus used in our studies is identical to the one described by Gerlai et al. (Gerlai (1998) Behavioural Brain Research, 95: 91-101) and was made of transparent acrylic walls with a black acrylic bottom. The dimensions of start and goal arms were: length 75 cm, width 12 cm and height 20 cm. The maze was equipped with three removable guillotine doors that could be operated by manual remote control. The testing room was illuminated by ceiling and floor lights and a fan provided a constant background noise. The T-maze was separated from the investigator by a black curtain and the movement of the mice in the maze was observed on a TV monitor and videotaped. After each individual mouse the T-maze was carefully cleaned with Windex spray and dried with paper towels. The T-maze continuous alternation task (T-CAT) limits the handling of mice and permits their exploratory behavior to be carried out undisturbed. The procedure used in this study is identical to that described by Gerlai et al. (Id.) and consisted of one forced and 14 free choice trials. Consecutive choices made by the mice were measured and the alternation rate during the 14 free choice trials was calculated (0%-no alternation, 100%-alternation at each trial, 50%-random choice). The time (in seconds) needed to complete the 15 trials was recorded and analyzed. The T-CAT testing was continuously registered by a video tracking system (SD Instruments Inc., San Diego, Calif.) and stored on a computer. Statistics were performed using StatView software (SAS Institute, Cary, N.C.)

Assay [8] deals with brain arteriolar smooth muscle α-actin. The experiment in a line: Brain arteriolar smooth muscle α-actin immunostaining, wall to lumen ratio. It is filed as in vivo. The note with it: LDL receptor null mice, Western diet 6 weeks, 300 μg/mL in drinking water; D-4F vs scrambled D-4F. The protocol:
Female wild-type and LDL receptor null C57BL/6 mice were from Jackson Laboratories (Bar Harbour, Me.). The mice were maintained on a chow diet (Ralston Purina) prior to administration of a Western diet (Teklad/Harlan, Madison Wis., diet No. 88137; 42% fat, 0.15% cholesterol, w/w). For studies of brain arterioles the mice were anesthetized with intramuscular ketamine (100 mg/kg) and acepromazine (2.5 mg/kg) and the heart was perfused via the left ventricle with 25 mL phosphate buffered saline (PBS) containing heparin (10 U/mL) followed by 100 mL of 4% paraformaldehyde (PFA) in PBS at pH 7.4 as described by Fernagut et al. (Fernagut et al. (2002) Neuroscience, 114: 1005-1017; Fernagut et al. (2004) Exp Neurol., 185: 47-62). […]
as §1

The mark [9] stands for this setting: LDL receptor null mice, Western diet 6 weeks, 300 μg/mL in drinking water, Mean±SEM.

Take `CCCCCCCCCCCCCC(=O)OCC(COP(=O)([O-])OCC[N+](C)(C)C)OC(=O)CCCCCCCCCCCCC` (racemic) [DMPC, 1,2-ditetradecanoyl-rac-glycerol-3-phosphocholine]: the “acetylcholine vasorelaxation of facial artery rings” value in assay [1] is recorded as “significant improvement; also recorded: improves”. Besides, in assay [2], the HDL-cholesterol entry is listed as “increase”; the atherosclerosis result is “prevention and regression”; the “plasma apoA-I levels” value is “increase”.
Turning to “Ac-D-W-F-K-A-F-Y-D-K-V-A-E-K-F-K-E-A-F-NH2 [4F] (Ac-DWFKAFYDKVAEKFKEAF-NH2) [Peptide 4F]”, the “vasoreactivity of facial arteries” value in assay [3] was “dramatically improved”.
Regarding “Ac-D-W-F-K-A-F-Y-D-K-V-A-E-K-F-K-E-A-F-NH2 [D-4F] (Ac-[dD][dW][dF][dK][dA][dF][dY][dD][dK][dV][dA][dE][dK][dF][dK][dE][dA][dF]-NH2) [Peptide D-4F, apoA-I mimetic peptide]”, the “vasoreactivity of facial arteries” value in assay [3] is given as “improved”. Besides, in assay [4], the “brain arteriolar wall thickness” value was “decreased; also recorded: reduced”, the “lumen diameters of the brain arterioles” value is listed as “no difference” and the “ratio of wall to lumen diameter” value is listed as “significantly less”. Besides, the “difference in plasma total cholesterol, LDL-cholesterol, HDL-cholesterol or triglycerides” value in assay [5] (D-4F compared to scrambled D-4F) is recorded as “no significant difference”. Besides, in assay [5] (setting [9]), the HDL cholesterol concentration turned out to be 86 ± 6 mg/dL, the LDL cholesterol concentration came to 924 ± 76 mg/dL, the Triglycerides came out at 330 ± 25 mg/dL and the “plasma total cholesterol concentration” value is reported as 1,076±75 mg/dL. Besides, the LDL lipid hydroperoxides result in assay [6] is on record as “decrease”. Further, in assay [7] (LDL receptor null mice, Western diet, oral treatment), the “performance in the T-maze / T-CAT (spatial memory)” value was “significantly improved”. For the same compound, in assay [7] (LDL receptor null mice, Western diet, oral treatment, difference not statistically significant), the “time to complete the 15 trials” value was determined as 548 ± 37 s. In addition, in assay [7] (LDL receptor null mice, Western diet, oral treatment, listed as D4F), the “performance in the T-maze / T-CAT (spatial memory)” value is listed as “improvement”. Also, the “number of spontaneous alternations in the T-maze test” value in assay [7] (LDLR−/− mice, Western diet six weeks, 300 μg/mL in drinking water) is “significantly improved”. For the same compound, the “brain arteriolar wall smooth muscle α-actin content” value in assay [8] is on record as “significantly reduced”.
